According to US20090170869A1, “PIPERAZINE DERIVATIVE HAVING AFFINITY FOR THE HISTAMINE H3 RECEPTOR” (priority 2007, published 2009):

Assays:
H3 receptor = H3 receptor (Sus scrofa, UniProt A0A287B9V8); test: Pig-PET study with [11C]GSK189254: pig brain H3 receptor occupancy over time and kon-koff limited model; details: 50 micrograms/kg i.v.; for Measured H3 receptor occupancy @ 10 min: 10 minutes post administration; for Measured H3 receptor occupancy @ 2.5 h: 2.5 hours post administration; for Measured H3 receptor occupancy @ 6 h: 6 hours post administration; for Kd: Kd (koff/kon)
Chain of H3 receptor (A0A287B9V8 1-448): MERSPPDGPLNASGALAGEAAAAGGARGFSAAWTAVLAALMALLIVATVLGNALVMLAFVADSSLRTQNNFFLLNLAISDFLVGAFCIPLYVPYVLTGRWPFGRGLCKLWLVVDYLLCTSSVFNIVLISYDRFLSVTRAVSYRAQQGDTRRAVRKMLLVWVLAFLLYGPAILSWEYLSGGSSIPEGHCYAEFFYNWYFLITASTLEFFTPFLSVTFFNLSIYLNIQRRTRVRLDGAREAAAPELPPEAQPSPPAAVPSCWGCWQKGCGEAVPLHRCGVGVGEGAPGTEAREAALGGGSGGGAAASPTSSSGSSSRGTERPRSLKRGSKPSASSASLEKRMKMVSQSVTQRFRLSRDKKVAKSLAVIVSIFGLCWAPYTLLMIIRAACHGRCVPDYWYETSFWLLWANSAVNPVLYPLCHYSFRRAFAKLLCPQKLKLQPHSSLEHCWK

male Sprague Dawley rats = test: Toxicity Study 1: 7-day oral repeat-dose study in male Sprague Dawley rats; type: in vivo, rat; details: for tolerability: male rats
Protocol: Three male rats were added at each non-zero dose level for toxicokinetic evaluation. All doses and concentrations, including analyte concentration in plasma, are expressed in terms of the parent “free base” compound.
The following endpoints/parameters were evaluated for toxicology animals: clinical observations, body weights, food consumption measurements, selected haematology and selected clinical chemistry results, liver weights, selected macroscopic and microscopic observations, and selected hepatic gene expression analysis. Toxicokinetic evaluation (serial profiling) was performed on samples collected from satellite animals on Days 1 and 7. For male rats dosed at 30 or 100 mg/kg/day, histopathology observations carried out were on kidneys, mesentery and mandibular lymph node only. For male rats dosed at 0 mg/kg/day (control) and 300 mg/kg/day, histopathology observations carried out were on adrenals, brain, heart, kidneys, liver, lung, mandibular lymph node, mesentery, stomach, testes, and thymus (except that mandibular lymph node observations were for 0 mg/kg/day dosed rats only).

Sprague Dawley rats = test: Toxicity Study 2: 7-day oral dose range-finding study in Sprague Dawley rats; type: in vivo, rat
Protocol: Three male rats and three female rats were added at 600 mg/kg/day and 3 female rats were added at 300 mg/kg/day for toxicokinetic evaluation.
The following endpoints/parameters were evaluated for toxicology animals: clinical observations, body weights, food consumption, selected haematology, selected clinical chemistry, liver weights, and selected macroscopic and microscopic observations. Toxicokinetic evaluation was performed on samples collected on Day 1 (300 and 600 mg/kg/day dosing) and Day 7 (300 mg/kg/day dosing only).

[1] = target: T1, brain histamine H3 receptor (Rattus norvegicus, UniProt Q9QYN8); test: Rat ex vivo binding studies - rat brain histamine H3 receptor occupancy ([3H]-R-α-methylhistamine); type: in vivo; details: for inhibition of [3H]-R-α-methylhistamine specific binding to the H3 receptor (surrogate for rat brain H3 receptor occupancy): 10 mg/kg oral; for specific binding of [3H]-R-α-methylhistamine to the H3 receptor: rats n=3, 10 mg/kg oral, mean ± SEM
T1 construct: from tissue; host or cells: cerebral cortex homogenate of adult male Lister hooded rats
T1 sequence (Q9QYN8 whole entry): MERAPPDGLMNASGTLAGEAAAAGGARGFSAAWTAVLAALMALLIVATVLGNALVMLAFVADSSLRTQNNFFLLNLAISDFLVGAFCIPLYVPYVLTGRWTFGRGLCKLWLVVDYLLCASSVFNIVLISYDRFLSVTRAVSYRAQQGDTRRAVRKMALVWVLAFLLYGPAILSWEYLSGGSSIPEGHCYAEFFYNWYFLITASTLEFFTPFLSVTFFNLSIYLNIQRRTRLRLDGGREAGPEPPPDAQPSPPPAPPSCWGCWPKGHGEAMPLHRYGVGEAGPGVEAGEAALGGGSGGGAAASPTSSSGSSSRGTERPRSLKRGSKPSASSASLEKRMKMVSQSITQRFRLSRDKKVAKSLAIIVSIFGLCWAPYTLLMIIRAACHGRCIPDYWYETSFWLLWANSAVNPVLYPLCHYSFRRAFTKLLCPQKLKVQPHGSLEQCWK
Protocol: Ex vivo binding studies were carried out to determine brain histamine H3 receptor occupancy in rats at certain time points after oral administration of a test compound.
Adult male rats (Lister hooded 200-250 g, Charles River, UK) received vehicle (1% w/v aqueous methylcellulose) (control) or the test compound (10 mg/kg) by oral gavage (n=3 per group) and were sacrificed 1 or 4 hours following oral dosing. The 1 hour and 4 hour studies were not necessarily done on the same day. Terminal blood samples were collected and brains rapidly removed. Cerebral cortex tissue was dissected from half of each brain for ex vivo binding; the other half brain can be used for pharmacokinetic analysis of brain concentrations of each compound. All dissected tissue samples were snap-frozen in liquid nitrogen, and stored at −80° C. until use. The tissues were rapidly thawed and homogenised in approximately 30 volumes of ice cold assay reaction buffer. The assay reaction buffer contained 50 mM Tris-HCl (made up using Trizma pre-set crystals pH 7.7 @25° C., Sigma cat. No. T8068-250G) and 5 mM EDTA, with a final buffer pH of 7.2 to 7.8, usually about 7.4. The crude homogenate (600-800 μg/well) was then used to measure H3 receptor binding using [^3H]-R-α-methylhistamine as radioligand. Assays measuring total binding of [^3H]-R-α-methylhistamine consisted of 50 μl assay reaction buffer, 400 μl of homogenate (corresponding to 600-800 μg/well) and 50 μl of 2 nM R(−)α-Methyl[imidazole-2,5(n)-3H]histamine dihydrochloride ([^3H]-R-α-methylhistamine; specific activity, 24 Ci mmol^−1, Amersham Biosciences, catalogue no. TRK1017). Incubations with [^3H]-R-α-methylhistamine were for 45 min at 30° C. Non-specific binding of [^3H]-R-α-methylhistamine was determined in parallel using the same assay except that 50 μl of 10 μM imetit (an H3 receptor agonist, e.g. available from Tocris) was used instead of the 50 μl of assay reaction buffer. The experiments were terminated by rapid filtration through Whatman GF/B filters (pre-soaked in 0.3% v/v polyethyleneimine (PEI)), and then the filters were washed through with 4×5 ml of ice cold harvesting buffer. The harvesting buffer contained 50 mM Tris-HCl (from Trizma pre-set crystals pH 7.7 @ 25° C.) and 5 mM MgCl2, with a final buffer pH of 7.2 to 7.8, usually about 7.4. Filters were dried and added to vials each containing 4 ml Ultima Gold MV scintillation fluid (Hewlett Packard) and radioactivity determined by liquid scintillation spectrometry using a Packard Tri-Carb 2500TR liquid scintillation counter.
Specific binding of [^3H]-R-α-methylhistamine to the H3 receptor was determined by the subtraction of the value obtained for non-specific binding from the value obtained for total binding.
Protein concentrations were determined using the Bradford assay method (Bio-Rad
Protein Assay Dye Reagent Concentrate, catalogue no. 500-0006; from Bio-Rad Laboratories GmbH, Heidemannstrasse 164, 80939 Muenchen, Germany; or from Bio-Rad, York, UK) with bovine serum albumin as a standard. Specific radioactivity in the samples was corrected for protein (i.e. per microgram of protein).
The specific binding of [^3H]-R-α-methylhistamine to the H3 receptor is expressed as a mean (n=3 rats)±SEM (standard error of the mean), as a percentage of vehicle-treated control animals. Data is also expressed as inhibition of [^3H]-R-α-methylhistamine specific binding to the H3 receptor, as a surrogate measure for H3 receptor occupancy by the test compound, calculated as 100% minus the % mean specific binding of [^3H]-R-α-methylhistamine to the H3 receptor.

[2] = Plasma clearance in the pig-PET study; type: in vivo; details: Yorkshire-Landrace, iv, 50 ug/kg, 50 micrograms/kg i.v.
[3] = mean ± standard deviation, n=3 pigs
[4] = rat, in vivo, po, 300 mg/kg/day

CC(C)N1CCN(C(=O)c2ccc(OC3CCOCC3)cc2)CC1.Cl [Example E1]
reduction in pig brain H3 receptor occupancy as compared to salt B (H3 receptor; n=3 pigs, preliminary measurements): generally faster reduction | Measured H3 receptor occupancy @ 10 min (H3 receptor; [3]): 58% ± 4% | Measured H3 receptor occupancy @ 10 min (H3 receptor; pig 1): 61% | Measured H3 receptor occupancy @ 10 min (H3 receptor; pig 2): 54% | Measured H3 receptor occupancy @ 10 min (H3 receptor; pig 3): 58% | Measured H3 receptor occupancy @ 2.5 h (H3 receptor; [3]): 30% ± 11% | Measured H3 receptor occupancy @ 2.5 h (H3 receptor; pig 1): 43% | Measured H3 receptor occupancy @ 2.5 h (H3 receptor; pig 2): 24% | Measured H3 receptor occupancy @ 2.5 h (H3 receptor; pig 3): 22% | Measured H3 receptor occupancy @ 6 h (H3 receptor; [3]): 14% ± 14% | Measured H3 receptor occupancy @ 6 h (H3 receptor; pig 1): 30% | Measured H3 receptor occupancy @ 6 h (H3 receptor; pig 2): 7% | Measured H3 receptor occupancy @ 6 h (H3 receptor; pig 3): 5% | Kd (H3 receptor; average model (from average plasma data and average occupancy)): 9.14 nM | Kd (H3 receptor; mean of pigs 1-3): 9.08 nM | Kd (H3 receptor; pig 1, in vivo PK/RO model): 4.47 nM | Kd (H3 receptor; pig 2, in vivo PK/RO model): 9.35 nM | Kd (H3 receptor; pig 3, in vivo PK/RO model): 13.4 nM | tolerability (male Sprague Dawley rats; 300 mg/kg/day oral for 7 days (measured as free base)): moderately well tolerated | tolerability (male Sprague Dawley rats; 30 or 100 mg/kg/day oral for 7 days (measured as free base)): well tolerated | food consumption (male Sprague Dawley rats; [4]): ca. 0.80 × pretreatment | periarterial inflammatory cell infiltrate in the hilar region of the kidneys (male Sprague Dawley rats; [4]): minimal in severity, was noted in the hilar region of the kidneys of all four male rats | tolerability (Sprague Dawley rats; conclusion from Toxicity Studies 1 and 2: male and female rats, 7 days oral, doses up to 300 mg/kg/day): well tolerated or moderately well tolerated | tolerability (Sprague Dawley rats; female rats, 300 mg/kg/day oral for 7 days (measured as free base)): moderately well tolerated | tolerability (Sprague Dawley rats; male or female rats, 600 mg/kg/day oral (only 2 days)): not tolerated | certain haematology and other clinical chemistry parameters (Sprague Dawley rats; [4]): increased | clinical signs (Sprague Dawley rats; [4]): chewing movements, rubbing chin on the cage floor, and certain other clinical signs | glandular dilation of the fundic region of the stomach (Sprague Dawley rats; [4]): of minimal severity, was observed in most female rats | inhibition of [3H]-R-α-methylhistamine specific binding to the H3 receptor (surrogate for rat brain H3 receptor occupancy) ([1]; 1 hour after dosing): about 60% | inhibition of [3H]-R-α-methylhistamine specific binding to the H3 receptor (surrogate for rat brain H3 receptor occupancy) ([1]; 4 hours after dosing): about 16% | specific binding of [3H]-R-α-methylhistamine to the H3 receptor ([1]; sacrificed 1 hour after dosing): 40%+2% | specific binding of [3H]-R-α-methylhistamine to the H3 receptor ([1]; sacrificed 4 hours after dosing): 84%+6% | clearance ([2]; average model (from average plasma data)): 38.3 mL/min | clearance ([2]; mean of pigs 1-3): 41.7 mL/min | clearance ([2]; pig 1): 48.3 mL/min | clearance ([2]; pig 2): 50 mL/min | clearance ([2]; pig 3): 30 mL/min
